The values below come from paper PMC11316031 (EMBO Reports, 2024).

pIC50: −log10 of the molar value.

Test [1] addresses T1, Arp3 (subunit of the Arp2/3 complex) (Homo sapiens, UniProt P61158).
T1 construct: gene ACTR3; recombinant human Arp2/3 iso-complex containing Arp3/ArpC1A/C5L; with Arp2/3 complex (Arp2, ArpC1A, ArpC2, ArpC3, ArpC4, ArpC5L)
Briefly: TIRF actin branching rate with GST-N-WASP-VCA-activated recombinant Arp2/[…]; also pyrene actin polymerisation. The format is biochemical.

The target in test [2] is T2, Arp2 (subunit of the Arp2/3 complex) (Homo sapiens, UniProt P61158+P61160).
T2 construct: gene ACTR2; recombinant human Arp2/3 iso-complex containing Arp3/ArpC1A/C5L; with Arp3 (ACTR3, P61158), within the Arp2/3 complex
The test is described as above. It counts as biochemical.

As to `COc1ccc(N2C(=O)CSC2c2cccc(Br)c2)c(OC)c1` (centres unmarked) [CK-869], the pIC50 (in general, −log10 of the IC50, conventionally taken in molar units) in test [1] was 6.07.
As for `Cc1[nH]c2ccccc2c1CCNC(=O)c1ccccc1F` [CK-666], the negative-log IC50 (pIC50) in test [2] was 4.70.
